# Assay results from patent publication US10836720B2, “Inhibitors of integrin alpha 5 beta 1 and methods of use” (The Regents of the University of California, priority 2016, dated 2020).
# Key:
# [1] = target: alphavbeta1 (Homo sapiens, UniProt G3HZ55+P06756); assay: Cell adhesion assay, alphavbeta1-mediated (CHO cells transfected with human alphav adhering to the latency associated peptide of TGF-beta); type: cell-based; conditions: adhesion to LAP of TGF-beta
# Experimental: The blockade of integrin alpha 5 beta 1 provides a novel target for the treatment of asthma. […] The intracellular actin-myosin cross-bridging pathway serves as a useful target. Modulating the interactions of the cell and the extracellular matrix impairs the ability of the smooth muscle to transmit tension effectively. The blockade of integrin alpha 5 beta 1 was tested in vitro with human cell lines as well as in vivo with a mouse model of airway hyperresponsiveness. Novel compounds as described herein, and identified in Table 1, have been synthesized and tested in vitro for their ability to inhibit cell adhesion mediated by either alpha5beta1 (adhesion of the colon carcinoma cell line SW480 to fibronectin, a response that is entirely dependent on binding of alpha5beta1 to fibronectin), or alphavbeta1 (adhesion of Chinese Hamster Ovary cells transfected with human alphav to the latency associated peptide of transforming growth factor beta, a response that is entirely dependent on binding of alphavbeta1 to LAP).
# [2] = target: alpha5beta1 (Homo sapiens (Human), UniProt P05556+P08648); assay: Cell adhesion assay, alpha5beta1-mediated (colon carcinoma cell line SW480 adhering to fibronectin); type: cell-based; conditions: SW480 cells
# Experimental: The blockade of integrin alpha 5 beta 1 was tested in vitro with human cell lines as well as in vivo with a mouse model of airway hyperresponsiveness.
# Sequence of alphavbeta1 (G3HZ55 21-798 limits assumed): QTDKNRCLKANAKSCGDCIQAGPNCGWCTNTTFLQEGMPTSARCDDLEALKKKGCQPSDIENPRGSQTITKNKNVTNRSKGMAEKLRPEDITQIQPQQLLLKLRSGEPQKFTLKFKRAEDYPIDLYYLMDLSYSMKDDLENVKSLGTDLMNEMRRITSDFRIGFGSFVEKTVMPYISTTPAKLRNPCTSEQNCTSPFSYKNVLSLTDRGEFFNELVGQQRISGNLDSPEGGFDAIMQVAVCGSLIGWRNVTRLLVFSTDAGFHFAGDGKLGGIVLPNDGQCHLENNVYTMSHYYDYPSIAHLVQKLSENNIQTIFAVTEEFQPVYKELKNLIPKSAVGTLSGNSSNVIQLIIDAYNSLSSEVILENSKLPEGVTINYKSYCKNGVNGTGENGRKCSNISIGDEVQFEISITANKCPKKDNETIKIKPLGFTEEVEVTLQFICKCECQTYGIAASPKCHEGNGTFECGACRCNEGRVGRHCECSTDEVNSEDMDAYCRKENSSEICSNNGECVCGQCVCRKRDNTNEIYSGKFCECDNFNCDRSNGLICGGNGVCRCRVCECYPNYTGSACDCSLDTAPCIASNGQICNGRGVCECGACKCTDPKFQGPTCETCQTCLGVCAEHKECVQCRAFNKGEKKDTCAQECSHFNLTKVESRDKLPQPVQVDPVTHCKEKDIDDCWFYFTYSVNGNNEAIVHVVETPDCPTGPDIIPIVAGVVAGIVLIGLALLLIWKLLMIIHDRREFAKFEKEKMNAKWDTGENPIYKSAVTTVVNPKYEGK
# Sequence of alphavbeta1 (P06756 31-889 limits assumed): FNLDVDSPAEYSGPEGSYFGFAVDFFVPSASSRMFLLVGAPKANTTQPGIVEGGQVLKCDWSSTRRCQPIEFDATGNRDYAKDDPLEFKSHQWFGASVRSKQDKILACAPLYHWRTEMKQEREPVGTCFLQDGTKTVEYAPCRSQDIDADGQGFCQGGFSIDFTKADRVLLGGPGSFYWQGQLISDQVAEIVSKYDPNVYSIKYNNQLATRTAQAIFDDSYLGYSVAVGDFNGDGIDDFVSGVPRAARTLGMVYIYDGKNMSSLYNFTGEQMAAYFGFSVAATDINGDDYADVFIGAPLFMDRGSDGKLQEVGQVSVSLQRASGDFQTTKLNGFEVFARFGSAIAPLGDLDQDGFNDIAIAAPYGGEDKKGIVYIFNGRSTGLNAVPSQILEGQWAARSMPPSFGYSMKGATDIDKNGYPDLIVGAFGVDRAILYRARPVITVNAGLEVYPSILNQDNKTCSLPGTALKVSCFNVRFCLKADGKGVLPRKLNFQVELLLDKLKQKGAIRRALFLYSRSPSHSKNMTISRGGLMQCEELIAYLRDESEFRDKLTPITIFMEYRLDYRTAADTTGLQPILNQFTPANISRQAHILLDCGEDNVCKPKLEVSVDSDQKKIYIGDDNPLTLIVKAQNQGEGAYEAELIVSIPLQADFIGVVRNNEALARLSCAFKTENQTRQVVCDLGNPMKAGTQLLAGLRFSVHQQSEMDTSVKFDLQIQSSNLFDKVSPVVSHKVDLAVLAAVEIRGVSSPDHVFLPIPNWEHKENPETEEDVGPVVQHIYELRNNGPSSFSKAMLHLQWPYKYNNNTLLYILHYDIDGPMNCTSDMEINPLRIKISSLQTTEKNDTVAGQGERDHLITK
# Sequence of alphavbeta1 (P06756 891-1048 limits assumed): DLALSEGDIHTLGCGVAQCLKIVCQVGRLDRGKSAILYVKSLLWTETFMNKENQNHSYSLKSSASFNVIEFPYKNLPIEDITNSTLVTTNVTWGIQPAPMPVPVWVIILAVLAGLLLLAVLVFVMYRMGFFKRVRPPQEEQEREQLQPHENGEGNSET
# Sequence of alpha5beta1 (P08648 42-894): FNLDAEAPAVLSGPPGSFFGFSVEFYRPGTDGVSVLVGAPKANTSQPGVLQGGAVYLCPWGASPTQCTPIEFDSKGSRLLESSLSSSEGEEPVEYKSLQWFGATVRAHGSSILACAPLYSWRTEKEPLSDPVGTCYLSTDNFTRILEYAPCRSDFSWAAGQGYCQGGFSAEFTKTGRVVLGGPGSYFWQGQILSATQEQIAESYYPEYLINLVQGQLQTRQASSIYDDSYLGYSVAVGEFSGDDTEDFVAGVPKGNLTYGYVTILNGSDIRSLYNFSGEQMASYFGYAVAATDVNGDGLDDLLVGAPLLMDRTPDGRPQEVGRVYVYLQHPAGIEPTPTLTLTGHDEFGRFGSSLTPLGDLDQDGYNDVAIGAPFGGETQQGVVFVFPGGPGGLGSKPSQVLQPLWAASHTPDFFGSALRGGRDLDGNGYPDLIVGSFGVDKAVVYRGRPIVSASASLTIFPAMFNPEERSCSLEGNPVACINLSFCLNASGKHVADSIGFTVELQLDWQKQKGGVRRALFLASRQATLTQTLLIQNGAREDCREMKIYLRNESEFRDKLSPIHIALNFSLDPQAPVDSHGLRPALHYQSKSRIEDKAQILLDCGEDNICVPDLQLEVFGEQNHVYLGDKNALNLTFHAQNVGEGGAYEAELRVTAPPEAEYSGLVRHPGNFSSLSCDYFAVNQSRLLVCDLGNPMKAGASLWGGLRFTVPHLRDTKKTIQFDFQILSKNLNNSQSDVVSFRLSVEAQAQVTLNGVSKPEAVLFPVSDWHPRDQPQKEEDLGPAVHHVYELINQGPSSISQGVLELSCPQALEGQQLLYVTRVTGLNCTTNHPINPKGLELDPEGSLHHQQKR
# Sequence of alpha5beta1 (P08648 895-1049): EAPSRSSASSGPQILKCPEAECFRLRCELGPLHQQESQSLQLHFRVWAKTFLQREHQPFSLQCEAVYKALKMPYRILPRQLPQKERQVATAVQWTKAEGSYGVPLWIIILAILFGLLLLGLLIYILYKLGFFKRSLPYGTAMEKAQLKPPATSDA
# Sequence of alpha5beta1 (P05556 21-798): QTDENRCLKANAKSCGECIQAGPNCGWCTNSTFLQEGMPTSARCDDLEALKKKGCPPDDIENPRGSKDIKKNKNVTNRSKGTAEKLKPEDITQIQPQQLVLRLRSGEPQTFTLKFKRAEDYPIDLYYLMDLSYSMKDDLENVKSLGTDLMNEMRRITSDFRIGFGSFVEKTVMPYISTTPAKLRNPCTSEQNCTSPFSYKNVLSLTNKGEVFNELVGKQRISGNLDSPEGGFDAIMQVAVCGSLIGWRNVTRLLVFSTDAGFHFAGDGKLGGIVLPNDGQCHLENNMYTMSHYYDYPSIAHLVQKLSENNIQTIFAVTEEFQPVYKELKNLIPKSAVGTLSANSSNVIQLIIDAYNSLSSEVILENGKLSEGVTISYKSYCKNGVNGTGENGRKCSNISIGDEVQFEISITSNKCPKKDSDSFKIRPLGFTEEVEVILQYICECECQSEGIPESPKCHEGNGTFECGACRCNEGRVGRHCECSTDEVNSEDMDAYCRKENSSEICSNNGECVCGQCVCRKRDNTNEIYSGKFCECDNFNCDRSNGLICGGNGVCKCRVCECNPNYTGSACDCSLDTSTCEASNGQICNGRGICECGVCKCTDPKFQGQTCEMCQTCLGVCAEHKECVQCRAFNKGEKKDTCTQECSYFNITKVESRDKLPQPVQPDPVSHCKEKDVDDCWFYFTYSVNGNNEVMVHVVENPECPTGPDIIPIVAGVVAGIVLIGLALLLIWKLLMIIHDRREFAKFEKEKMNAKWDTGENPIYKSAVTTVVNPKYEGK
Compound,IC50 [2],IC50 [1]
"N=C(N)NCCCCCC(=O)NC[C@H](NC(=O)[C@@H]1CCCN1S(=O)(=O)c1ccccc1)C(=O)O [HIJ-1083, (S)-3-(6-guanidinohexanamido)-2-((S)-1-(phenylsulfonyl)pyrrolidine-2-carboxamido)propanoic acid]",100 to 10000 nM,100 to 10000 nM
"N=C(N)NCCCCC(=O)N[C@@H](CCCCNC(=S)Nc1ccc(C2c3ccc(O)cc3OC3=CC(=O)C=CC32)c(C(=O)O)c1)C(=O)NC[C@H](NC(=O)[C@@H]1CCCN1S(=O)(=O)c1ccccc1)C(=O)O (stereo partly drawn) [HIJ-1216, 5-(3-((S)-6-(((S)-2-carboxy-2-((S)-1-(phenylsulfonyl)pyrrolidine-2-carboxamido)ethyl)amino)-5-(5-guanidinopentanamido)-6-oxohexyl)thioureido)-2-(6-hydroxy-3-oxo-9,9a-dihydro-3H-xanthen-9-yl)benzoic acid]",> 10000 nM,> 10000 nM
"N=C(N)NCCCCNC(=O)NC[C@H](NC(=O)[C@@H]1CCCN1S(=O)(=O)c1ccccc1)C(=O)O [HIJ-1016, (S)-3-(3-(4-guanidinobutyl)ureido)-2-((S)-1-(phenylsulfonyl)pyrrolidine-2-carboxamido)propanoic acid]",100 to 10000 nM,< 100 nM
O=C(CNC(=O)c1cccc(Nc2ccccn2)c1)NC[C@H](NC(=O)[C@@H]1CCCN1S(=O)(=O)c1ccccc1)C(=O)O [HIJ-1093],100 to 10000 nM,100 to 10000 nM
"N=C(N)NCCCCCNC(=O)NC[C@H](NC(=O)[C@@H]1CCCN1S(=O)(=O)c1ccccc1)C(=O)O [HIJ-1017, (S)-3-(3-(5-guanidinopentyl)ureido)-2-((S)-1-(phenylsulfonyl)pyrrolidine-2-carboxamido)propanoic acid]",100 to 10000 nM,< 100 nM
"N=C(N)NCCCCCCNC(=O)NC[C@H](NC(=O)[C@@H]1CCCN1S(=O)(=O)c1ccccc1)C(=O)O [HIJ-1018, (S)-3-(3-(6-guanidinohexyl)ureido)-2-((S)-1-(phenylsulfonyl)pyrrolidine-2-carboxamido)propanoic acid]",100 to 10000 nM,< 100 nM

# Continued, in another order:
IC50 [2],Compound,IC50 [1]
< 100 nM,"N=C(N)Nc1cccc(C(=O)NCC(=O)NC[C@H](NC(=O)[C@@H]2CCCN2S(=O)(=O)c2ccccc2)C(=O)O)c1 [HIJ-1094, (S)-3-(2-(3-guanidinobenzamido)acetamido)-2-((S)-1-(phenylsulfonyl)pyrrolidine-2-carboxamido)propanoic acid]",< 100 nM
< 100 nM,"N=C(N)Nc1cc(NC(=O)CCCN)cc(C(=O)NCC(=O)NC[C@H](NC(=O)[C@@H]2CCCN2S(=O)(=O)c2ccccc2)C(=O)O)c1 [HIJ-1437, (S)-3-(2-(3-(4-aminobutanamido)-5-guanidinobenzamido)acetamido)-2-((S)-1-(phenylsulfonyl)pyrrolidine-2-carboxamido)propanoic acid]",
< 100 nM,"N=C(N)Nc1cc(NC(=O)CCCNC(=O)C23CC4CC(CC(C4)C2)C3)cc(C(=O)NCC(=O)NC[C@H](NC(=O)[C@@H]2CCCN2S(=O)(=O)c2ccccc2)C(=O)O)c1 [HIJ-1483, (2S)-3-(2-(3-(4-((1s,3s)-adamantane-1-carboxamido)butanamido)-5-guanidinobenzamido)acetamido)-2-((S)-1-(phenylsulfonyl)pyrrolidine-2-carboxamido)propanoic acid]",
< 100 nM,"N=C(N)Nc1cccc(C(=O)NNC(=O)NC[C@H](NC(=O)[C@@H]2CCCN2S(=O)(=O)c2ccccc2)C(=O)O)c1 [HIJ-1099, (S)-3-(2-(3-guanidinobenzoyl)hydrazine-1-carboxamido)-2-((S)-1-(phenylsulfonyl)pyrrolidine-2-carboxamido)propanoic acid]",100 to 10000 nM
